“And” between values parts separate entries of the source, which are not always exact repeats. Equal values may be shown once.
System: DBA/1 mice, CIA model
Assay: Collagen-induced arthritis model in mice
Type: in vivo, mouse
Details: BID
Procedure: Collagen-induced arthritis (CIA) model was performed at Bolder BioPATH, USA. Study design and animal usage was approved by Bolder BioPATH’s Institutional Animal Care and Use Committee. CIA was induced in 6–7 week old male DBA/1 mice with body weight of 15–26 g (Harlan, Inc) by intradermal injection of Freund’s Complete Adjuvant (Difco) containing bovine type II collagen (Bolder BioPATH) on day 0 and again on day 21 according to the standard protocol. […] After that mice were randomized into six groups: a control group of four, vehicle group and four treatment groups of ten mice each. […] Each paw was scored daily for inflammation. Therapeutic and prophylactic paws were considered. At study termination mice were euthanized by CO2 inhalation followed by cervical dislocation. Fore paws, hind paws, and knees were removed for microscopy.
Mice were weighed on arthritis days 1, 3, 5, 7, 9, and 11 (prior to necropsy). Daily clinical scores were given for each of the paws (right front, left front, right rear, left rear) on days 1–11 using the following criteria:
After 1–2 days in fixative and 4–5 days in 5% formic acid for decalcification, tissues were trimmed, processed for paraffin embedding, sectioned at 8 µm and stained with toluidine blue. Hind paws and knees were embedded and sectioned in the frontal plane. Two joints from each animal were processed for histopathology evaluation. The joints were then scored by two independent readers as indicated below. When scoring, severity of changes as well as number of individual joints affected were considered. When only 1–3 joints of the paws or ankles out of a possibility of numerous metacarpal/metatarsal/digit or tarsal/tibiotarsal joints were affected, an arbitrary assignment of a maximum score of 1, 2 or 3 for parameters below was given depending on severity of changes. If more than 3 joints were involved, the criteria below were applied to the most severely affected/majority of joints.

Structure (SMILES): COc1cc(Nc2ncnc(Nc3cc4c(cn3)NC(=O)C(C)(C)O4)n2)cc(OC)c1OC [MT-SYK-03]
- % inhibition to Vehicle, Paw Score Total AUC Sum (d1-11) (103 mg/kg PO): 12%
- Paw Score Total AUC Sum (d1-11) (103 mg/kg PO, group Mean): 28.48
- Paw Score Total AUC Sum (d1-11) (103 mg/kg PO, individual animals): 27.25 and 32.38 and 26.00 and 35.88 and 12.50 and 29.00 and 37.38 and 33.00 and 33.88 and 17.50
- % inhibition to Vehicle, Average Paw Score (Day 1, 103 mg/kg PO): 0%
- Average Paw Score Per Arthritis Day (All Paws) (Day 1, 103 mg/kg PO, group Mean): 0.80
- Average Paw Score Per Arthritis Day (All Paws) (Day 1, 103 mg/kg PO, individual animals, 103 mg/kg): 0.50 and 1.50 and 1.00
- % inhibition to Vehicle, Average Paw Score (Day 2, 103 mg/kg PO): 18%
- Average Paw Score Per Arthritis Day (All Paws) (Day 2, 103 mg/kg PO, group Mean): 1.50
- Average Paw Score Per Arthritis Day (All Paws) (Day 2, 103 mg/kg PO, individual animals, 103 mg/kg): 1.25 and 2.00 and 1.00 and 2.50 and 1.50 and 0.50
- % inhibition to Vehicle, Average Paw Score (Day 3, 103 mg/kg PO): 15%
- Average Paw Score Per Arthritis Day (All Paws) (Day 3, 103 mg/kg PO, group Mean): 2.25
- Average Paw Score Per Arthritis Day (All Paws) (Day 3, 103 mg/kg PO, individual animals, 103 mg/kg): 2.25 and 3.00 and 1.25 and 3.25 and 2.00 and 2.75 and 2.50
- % inhibition to Vehicle, Average Paw Score (Day 4, 103 mg/kg PO): 13%
- Average Paw Score Per Arthritis Day (All Paws) (Day 4, 103 mg/kg PO, group Mean): 2.75
- Average Paw Score Per Arthritis Day (All Paws) (Day 4, 103 mg/kg PO, individual animals, 103 mg/kg): 2.75 and 3.25 and 2.00 and 3.50 and 1.25 and 3.00
- % inhibition to Vehicle, Average Paw Score (Day 5, 103 mg/kg PO): 12%
- Average Paw Score Per Arthritis Day (All Paws) (Day 5, 103 mg/kg PO, group Mean): 3.08
- Average Paw Score Per Arthritis Day (All Paws) (Day 5, 103 mg/kg PO, individual animals, 103 mg/kg): 3.00 and 3.50 and 2.75 and 3.75 and 1.25 and 4.00 and 2.00
- % inhibition to Vehicle, Average Paw Score (Day 6, 103 mg/kg PO): 11%
- Average Paw Score Per Arthritis Day (All Paws) (Day 6, 103 mg/kg PO, group Mean): 3.18
- Average Paw Score Per Arthritis Day (All Paws) (Day 6, 103 mg/kg PO, individual animals, 103 mg/kg): 3.00 and 3.50 and 3.75 and 1.25 and 4.00 and 2.25
- % inhibition to Vehicle, Average Paw Score (Day 7, 103 mg/kg PO): 10%
- Average Paw Score Per Arthritis Day (All Paws) (Day 7, 103 mg/kg PO, group Mean): 3.28
- Average Paw Score Per Arthritis Day (All Paws) (Day 7, 103 mg/kg PO, individual animals, 103 mg/kg): 3.00 and 3.50 and 3.25 and 4.00 and 1.25 and 4.25 and 3.75 and 2.25
- % inhibition to Vehicle, Average Paw Score (Day 8, 103 mg/kg PO): 12%
- Average Paw Score Per Arthritis Day (All Paws) (Day 8, 103 mg/kg PO, group Mean): 3.33
- Average Paw Score Per Arthritis Day (All Paws) (Day 8, 103 mg/kg PO, individual animals, 103 mg/kg): 3.25 and 3.50 and 4.00 and 1.25 and 4.50 and 3.75 and 4.25 and 2.00
- % inhibition to Vehicle, Average Paw Score (Day 9, 103 mg/kg PO): 13%
- Average Paw Score Per Arthritis Day (All Paws) (Day 9, 103 mg/kg PO, group Mean): 3.43
- Average Paw Score Per Arthritis Day (All Paws) (Day 9, 103 mg/kg PO, individual animals, 103 mg/kg): 3.25 and 3.75 and 3.50 and 4.25 and 1.50 and 4.50 and 2.00
- % inhibition to Vehicle, Average Paw Score (Day 10, 103 mg/kg PO): 13%
- Average Paw Score Per Arthritis Day (All Paws) (Day 10, 103 mg/kg PO, group Mean): 3.53
- Average Paw Score Per Arthritis Day (All Paws) (Day 10, 103 mg/kg PO, individual animals, 103 mg/kg): 3.50 and 3.75 and 4.25 and 1.50 and 4.75 and 4.00 and 2.00
- % inhibition to Vehicle, Average Paw Score (Day 11, 103 mg/kg PO): 12%
- Average Paw Score Per Arthritis Day (All Paws) (Day 11, 103 mg/kg PO, group Mean): 3.55
- Average Paw Score Per Arthritis Day (All Paws) (Day 11, 103 mg/kg PO, individual animals, 103 mg/kg): 3.50 and 3.75 and 4.00 and 4.25 and 1.50 and 4.75 and 2.00
- % inhibition to Vehicle, Total AUC Sum (d1-11) (MT-SYK-03 103 mg/kg PO): 18%
- Summed Prophylactic (Non-Enrollment) Paw Score (MT-SYK-03 103 mg/kg PO, Day 1, group mean): 0.00
- Summed Prophylactic (Non-Enrollment) Paw Score (MT-SYK-03 103 mg/kg PO, Day 1, individual animals): 0
- % inhibition to Vehicle, Summed Prophylactic (Non-Enrollment) Paw Score (MT-SYK-03 103 mg/kg PO, Day 2): 15%
- Summed Prophylactic (Non-Enrollment) Paw Score (MT-SYK-03 103 mg/kg PO, Day 2, group mean): 2.20
- Summed Prophylactic (Non-Enrollment) Paw Score (MT-SYK-03 103 mg/kg PO, Day 2, individual animals, 103 mg/kg): 2 and 4 and 1 and 3 and 0
- % inhibition to Vehicle, Summed Prophylactic (Non-Enrollment) Paw Score (MT-SYK-03 103 mg/kg PO, Day 3): 23%
- Summed Prophylactic (Non-Enrollment) Paw Score (MT-SYK-03 103 mg/kg PO, Day 3, group mean): 3.60
- Summed Prophylactic (Non-Enrollment) Paw Score (MT-SYK-03 103 mg/kg PO, Day 3, individual animals, 103 mg/kg): 5 and 3 and 2 and 1 and 6 and 4
- % inhibition to Vehicle, Summed Prophylactic (Non-Enrollment) Paw Score (MT-SYK-03 103 mg/kg PO, Day 4): 19%
- Summed Prophylactic (Non-Enrollment) Paw Score (MT-SYK-03 103 mg/kg PO, Day 4, group mean): 5.20
- Summed Prophylactic (Non-Enrollment) Paw Score (MT-SYK-03 103 mg/kg PO, Day 4, individual animals, 103 mg/kg): 7 and 3 and 5 and 6 and 1 and 4
- % inhibition to Vehicle, Summed Prophylactic (Non-Enrollment) Paw Score (MT-SYK-03 103 mg/kg PO, Day 5): 16%
- Summed Prophylactic (Non-Enrollment) Paw Score (MT-SYK-03 103 mg/kg PO, Day 5, group mean): 6.10
- Summed Prophylactic (Non-Enrollment) Paw Score (MT-SYK-03 103 mg/kg PO, Day 5, individual animals, 103 mg/kg): 8 and 3 and 6 and 1 and 10 and 7 and 4
- % inhibition to Vehicle, Summed Prophylactic (Non-Enrollment) Paw Score (MT-SYK-03 103 mg/kg PO, Day 6): 16%
- Summed Prophylactic (Non-Enrollment) Paw Score (MT-SYK-03 103 mg/kg PO, Day 6, group mean): 6.40
- Summed Prophylactic (Non-Enrollment) Paw Score (MT-SYK-03 103 mg/kg PO, Day 6, individual animals, 103 mg/kg): 8 and 3 and 9 and 6 and 1 and 10 and 5
- % inhibition to Vehicle, Summed Prophylactic (Non-Enrollment) Paw Score (MT-SYK-03 103 mg/kg PO, Day 7): 17%
- Summed Prophylactic (Non-Enrollment) Paw Score (MT-SYK-03 103 mg/kg PO, Day 7, group mean): 6.50
- Summed Prophylactic (Non-Enrollment) Paw Score (MT-SYK-03 103 mg/kg PO, Day 7, individual animals, 103 mg/kg): 8 and 3 and 9 and 7 and 1 and 10 and 6 and 5
- % inhibition to Vehicle, Summed Prophylactic (Non-Enrollment) Paw Score (MT-SYK-03 103 mg/kg PO, Day 8): 20%
- Summed Prophylactic (Non-Enrollment) Paw Score (MT-SYK-03 103 mg/kg PO, Day 8, group mean): 6.50
- Summed Prophylactic (Non-Enrollment) Paw Score (MT-SYK-03 103 mg/kg PO, Day 8, individual animals, 103 mg/kg): 8 and 3 and 9 and 7 and 1 and 10 and 6 and 5
- % inhibition to Vehicle, Summed Prophylactic (Non-Enrollment) Paw Score (MT-SYK-03 103 mg/kg PO, Day 9): 20%
- Summed Prophylactic (Non-Enrollment) Paw Score (MT-SYK-03 103 mg/kg PO, Day 9, group mean): 6.80
- Summed Prophylactic (Non-Enrollment) Paw Score (MT-SYK-03 103 mg/kg PO, Day 9, individual animals, 103 mg/kg): 8 and 3 and 10 and 2 and 6 and 5
- % inhibition to Vehicle, Summed Prophylactic (Non-Enrollment) Paw Score (MT-SYK-03 103 mg/kg PO, Day 10): 18%
- Summed Prophylactic (Non-Enrollment) Paw Score (MT-SYK-03 103 mg/kg PO, Day 10, group mean): 7.20
- Summed Prophylactic (Non-Enrollment) Paw Score (MT-SYK-03 103 mg/kg PO, Day 10, individual animals, 103 mg/kg): 9 and 3 and 11 and 8 and 2 and 10 and 7 and 5
